The values that follow come from patent US7411083B2, “Substituted acetic acid derivatives” (Wyeth, priority 2003, dated 2008).

Molecules are shown by their SMILES.

The target of the experiment is T1, recombinant human plasminogen activator inhibitor-1 (PAI-1) (Homo sapiens, UniProt P05121).
T1 construct: purchased Molecular Innovations, Royal Oak, Mich
T1 sequence (P05121 24-402): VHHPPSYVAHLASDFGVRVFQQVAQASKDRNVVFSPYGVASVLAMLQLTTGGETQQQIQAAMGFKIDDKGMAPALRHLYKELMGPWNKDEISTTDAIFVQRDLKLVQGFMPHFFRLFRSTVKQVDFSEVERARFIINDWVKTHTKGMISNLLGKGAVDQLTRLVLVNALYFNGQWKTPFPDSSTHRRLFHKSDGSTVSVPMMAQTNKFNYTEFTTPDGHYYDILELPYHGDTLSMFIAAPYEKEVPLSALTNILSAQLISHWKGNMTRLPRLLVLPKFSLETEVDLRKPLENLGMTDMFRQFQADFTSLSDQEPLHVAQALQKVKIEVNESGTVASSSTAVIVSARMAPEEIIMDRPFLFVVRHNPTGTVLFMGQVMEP
As to the kind of experiment: Screening for PAI-1 inhibition (residual tPA activity, Spectrozyme-tPA chromogenic substrate). It counts as biochemical. Particulars: test compound at 100 Um; pH 6.6 buffer, 140 nM PAI-1, 70 nM tPA. How it is done:
Screening for PAI-1 inhibition. Test compounds are dissolved in DMSO at a final concentration of 10 Mm, then diluted 100× in physiologic buffer. The inhibitory assay is initiated by the addition of the test compound (1-100 μM final concentration, maximum DMSO concentration of 0.2%) in a Ph 6.6 buffer containing 140 Nm recombinant human plasminogen activator inhibitor-1 (PAI-1; Molecular Innovations, Royal Oak, Mich.). Following a 1 hour incubation at room temperature, 70 Nm of recombinant human tissue plasminogen activator (Tpa) is added, and the combination of the test compound, PAI-1 and Tpa is incubated for an additional 30 minutes. Following the second incubation, Spectrozyme-Tpa (American Diagnostica, Greenwich, Conn.), a chromogenic substrate for Tpa, is added and absorbance read at 405 nm at 0 and 60 minutes. Relative PAI-1 inhibition is equal to the residual Tpa activity in the presence of the test compounds and PAI-1. Control treatments include the complete inhibition of Tpa by PAI-1 at the molar ratio employed (2:1), and the absence of any effect of the test compound on Tpa alone.
As to `C#CCn1cc(/C=N/OCC(=O)O)c2cc(OCc3cccc(Br)c3)ccc21` [Compound 36, [({(1E)-[5-[(3-bromobenzyl)oxy]-1-(2-propynyl)-1H-indol-3-yl]methylidene}amino)oxy]acetic acid], the inhibition at 100 µM worked out at 92%. Consider `Cn1cc(/C=N/OCC(=O)O)c2cc(OCc3cccc(Br)c3)ccc21` [Compound 37, {[((1E)-{5-[(3-bromobenzyl)oxy]-1-methyl-1H-indol-3-yl}methylidene)amino]oxy}acetic acid], for which the inhibition at 100 µM was 70%. As for `C#CCn1cc(/C=N/OCC(=O)O)c2cc(OCc3cccc(Cl)c3)ccc21` [Compound 38, [({(1E)-[5-[(3-chlorobenzyl)oxy]-1-(2-propynyl)-1H-indol-3-yl]methylidene}amino)oxy]acetic acid], the inhibition at 100 µM stood at 62%. For `Cn1cc(/C=N/OCC(=O)O)c2cc(OCc3cccc(Cl)c3)ccc21` [Compound 39, {[((1E)-{5-[(3-chlorobenzyl)oxy]-1-methyl-1H-indol-3-yl}methylidene)amino]oxy}acetic acid], the inhibition at 100 µM came to 48%. For `C=CCn1cc(/C=N/OCC(=O)O)c2cc(OCc3ccccc3)ccc21` [Compound 40, [({(1E)-[1-allyl-5-(benzyloxy)-1H-indol-3-yl]methylidene}amino)oxy]acetic acid], the inhibition at 100 µM was determined as 50%. `O=C(O)CO/N=C/c1cn(Cc2ccccc2)c2ccc(OCc3ccccc3)cc12` [Compound 41, [({(1E)-[1-benzyl-5-(benzyloxy)-1H-indol-3-yl]methylidene}amino)oxy]acetic acid]: the inhibition at 100 µM stood at 96%. On to `C#CCn1cc(/C=N/OCC(=O)O)c2cc(OCc3cccc(C(F)(F)F)c3)ccc21` [Compound 42, ({[(1E)-(1-(2-propynyl)-5-{[3-(trifluoromethyl)benzyl]oxy}-1H-indol-3-yl)methylidene]amino}oxy)acetic acid], for which the inhibition at 100 µM was found to be 96%. Regarding `Cn1cc(/C=N/OCC(=O)O)c2cc(OCc3cccc(C(F)(F)F)c3)ccc21` [Compound 43, ({[(1E)-(1-methyl-5-{[3-(trifluoromethyl)benzyl]oxy}-1H-indol-3-yl)methylidene]amino}oxy)acetic acid], the inhibition at 100 µM was determined as 81%. Consider `C#CCn1cc(/C=N/OCC(=O)O)c2cc(OCc3ccc(Cl)cc3)ccc21` [Compound 44, [({(1E)-[5-[(4-chlorobenzyl)oxy]-1-(2-propynyl)-1H-indol-3-yl]methylidene}amino)oxy]acetic acid], for which the inhibition at 100 µM worked out at 83%. Consider `C=CCn1cc(/C=N/OCC(=O)O)c2cc(OCc3ccc(Cl)cc3)ccc21` [Compound 45, {[((1E)-{1-allyl-5-[(4-chlorobenzyl)oxy]-1H-indol-3-yl}methylidene)amino]oxy}acetic acid], for which the inhibition at 100 µM worked out at 96%.

For `O=C(O)CO/N=C/c1cn(Cc2ccccc2)c2ccc(OCc3ccc(Cl)cc3)cc12` [Compound 46, {[((1E)-{1-benzyl-5-[(4-chlorobenzyl)oxy]-1H-indol-3-yl}methylidene)amino]oxy}acetic acid], the inhibition at 100 µM amounted to 86%.

In the case of `Cn1cc(/C=N/OCC(=O)O)c2cc(OCc3ccc(Cl)cc3)ccc21` [Compound 47, {[((1E)-{5-[(4-chlorobenzyl)oxy]-1-methyl-1H-indol-3-yl}methylidene)amino]oxy}acetic acid], the inhibition at 100 µM was 31%. As for `C#CCn1cc(/C=N/OCC(=O)O)c2cc(OCc3ccccc3Cl)ccc21` [Compound 48, [({(1E)-[5-[(2-chlorobenzyl)oxy]-1-(2-propynyl)-1H-indol-3-yl]methylidene}amino)oxy]acetic acid], the inhibition at 100 µM stood at 79%. With `C=CCn1cc(/C=N/OCC(=O)O)c2cc(OCc3ccccc3Cl)ccc21` [Compound 49, {[((1E)-{1-allyl-5-[(2-chlorobenzyl)oxy]-1H-indol-3-yl}methylidene)amino]oxy}acetic acid], the inhibition at 100 µM is 93%. For the molecule `Cn1cc(/C=N/OCC(=O)O)c2cc(OCc3ccccc3Cl)ccc21` [Compound 50, {[((1E)-{5-[(2-chlorobenzyl)oxy]-1-methyl-1H-indol-3-yl}methylidene)amino]oxy}acetic acid], the inhibition at 100 µM was 31%.

On to `C#CCn1cc(/C=N/OCC(=O)O)c2cc(OCc3ccc(Cl)c(Cl)c3)ccc21` [Compound 51, [({(1E)-[5-[(3,4-dichlorobenzyl)oxy]-1-(2-propynyl)-1H-indol-3-yl]methylidene}amino)oxy]acetic acid], for which the inhibition at 100 µM turned out to be 86%.

For the molecule `C=CCn1cc(/C=N/OCC(=O)O)c2cc(OCc3ccc(Cl)c(Cl)c3)ccc21` [Compound 52, {[((1E)-{1-allyl-5-[(3,4-dichlorobenzyl)oxy]-1H-indol-3-yl}methylidene)amino]oxy}acetic acid], the inhibition at 100 µM turned out to be 72%. Consider `O=C(O)CO/N=C/c1cn(Cc2ccccc2)c2ccc(OCc3ccc(Cl)c(Cl)c3)cc12` [Compound 53, {[((1E)-{1-benzyl-5-[(3,4-dichlorobenzyl)oxy]-1H-indol-3-yl}methylidene)amino]oxy}acetic acid], for which the inhibition at 100 µM amounted to 76%. As for `Cn1cc(/C=N/OCC(=O)O)c2cc(OCc3ccc(Cl)c(Cl)c3)ccc21` [Compound 54, {[((1E)-{5-[(3,4-dichlorobenzyl)oxy]-1-methyl-1H-indol-3-yl}methylidene)amino]oxy}acetic acid], the inhibition at 100 µM is 91%. Take `C=CCn1cc(/C=N/OCC(=O)O)c2cc(OCc3ccc4ccccc4c3)ccc21` [Compound 55, [({(1E)-[1-allyl-5-(2-naphthylmethoxy)-1H-indol-3-yl]methylidene}amino)oxy]acetic acid]: the inhibition at 100 µM was 81%.

Regarding `O=C(O)CO/N=C/c1cn(Cc2ccccc2)c2ccc(OCc3ccc4ccccc4c3)cc12` [Compound 56, [({(1E)-[1-benzyl-5-(2-naphthylmethoxy)-1H-indol-3-yl]methylidene}amino)oxy]acetic acid], the inhibition at 100 µM is 62%. Take `Cn1cc(/C=N/OCC(=O)O)c2cc(OCc3ccc4ccccc4c3)ccc21` [Compound 57, [({(1E)-[1-methyl-5-(2-naphthylmethoxy)-1H-indol-3-yl]methylidene}amino)oxy]acetic acid]: the inhibition at 100 µM is 64%. Consider `O=C(O)CO/N=C/c1cccc(-c2cccc(OCc3ccc(C(F)(F)F)cc3)c2)c1` [Compound 58, ({[(1E)-(3′-{[4-(trifluoromethyl)benzyl]oxy}-1,1′-biphenyl-3-yl)methylidene]amino}oxy)acetic acid], for which the inhibition at 100 µM was determined as 84%.

On to `CC(C)(C)c1ccc(COc2cccc(-c3cccc(/C=N/OCC(=O)O)c3)c2)cc1` [Compound 59, {[((1E)-{3′-[(4-tert-butylbenzyl)oxy]-1,1′-biphenyl-3-yl}methylidene)amino]oxy}acetic acid], for which the inhibition at 100 µM turned out to be 63%. Next, `O=C(O)CO/N=C/c1cccc(-c2cccc(OCc3ccc(Br)cc3)c2)c1` [Compound 60, {[((1E)-{3′-[(4-bromobenzyl)oxy]-1,1′-biphenyl-3-yl}methylidene)amino]oxy}acetic acid]: 88%; `O=C(O)CO/N=C/c1cccc(-c2cccc(OCc3cc(C(F)(F)F)cc(C(F)(F)F)c3)c2)c1` [Compound 61, ({[(1E)-(3′-{[3,5-bis(trifluoromethyl)benzyl]oxy}-1,1′-biphenyl-3-yl)methylidene]amino}oxy)acetic acid]: 74%.

In the case of `O=C(O)CO/N=C/c1cccc(-c2cccc(OCc3cccc(Br)c3)c2)c1` [Compound 62, {[((1E)-{3′-[(3-bromobenzyl)oxy]-1,1′-biphenyl-3-yl}methylidene)amino]oxy}acetic acid], the inhibition at 100 µM worked out at 84%. For the molecule `O=C(O)CO/N=C/c1cccc(-c2cccc(OCc3cccc(Cl)c3)c2)c1` [Compound 63, {[((1E)-{3′-[(3-chlorobenzyl)oxy]-1,1′-biphenyl-3-yl}methylidene)amino]oxy}acetic acid], the inhibition at 100 µM amounted to 91%. On to `O=C(O)CO/N=C/c1cccc(-c2cccc(OCc3ccccc3)c2)c1` [Compound 64, [({(1E)-[3′-(benzyloxy)-1,1′-biphenyl-3-yl]methylidene}amino)oxy]acetic acid], for which the inhibition at 100 µM was 92%.

On to `O=C(O)CO/N=C/c1cccc(-c2cccc(OCc3cccc(C(F)(F)F)c3)c2)c1` [Compound 65, ({[(1E)-(3′-{[3-(trifluoromethyl)benzyl]oxy}-1,1′-biphenyl-3-yl)methylidene]amino}oxy)acetic acid], for which the inhibition at 100 µM came to 84%.

For `O=C(O)CO/N=C/c1cccc(-c2cccc(OCc3ccc(Cl)cc3)c2)c1` [Compound 66, {[((1E)-{3′-[(4-chlorobenzyl)oxy]-1,1′-biphenyl-3-yl}methylidene)amino]oxy}acetic acid], the inhibition at 100 µM came out at 84%.

For the molecule `O=C(O)CO/N=C/c1cccc(-c2cccc(OCc3ccccc3Cl)c2)c1` [Compound 67, {[((1E)-{3′-[(2-chlorobenzyl)oxy]-1,1′-biphenyl-3-yl}methylidene)amino]oxy}acetic acid], the inhibition at 100 µM is 87%. With `O=C(O)CO/N=C/c1cccc(-c2cccc(OCc3ccc(Cl)c(Cl)c3)c2)c1` [Compound 68, {[((1E)-{3′-[(3,4-dichlorobenzyl)oxy]-1,1′-biphenyl-3-yl}methylidene)amino]oxy}acetic acid], the inhibition at 100 µM was determined as 83%.

For orientation: inhibition means the share of the control response that was lost under treatment.
